US9133207B2, “Tetrandrine derivatives with substituted 5-carbon, preparation method and use thereof” (Hangzhou Bensheng Pharmaceutical Co., Ltd., priority 2011, dated 2015)
In brackets after ≈: the same amount, converted by molar mass. Blank lines part the entries; values can stand above or below the compound they belong to.

Key:
[1] = system: NB4 (acute promyelocytic leukemia, AML); assay: Leukemia cell growth inhibition, MTT, 72 h (Example 5); assay type: cell-based, human; conditions: Homo sapiens; 72 h, MTT
Procedure, shortened: (§1)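 RPMI 1640 + 10% FBS, 6000 cells/well; tetrandrine derivatives at various concentrations; 37° C, 5% CO2, 72 h; viability by MTT.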

[2] = system: Jurkat (acute lymphoblastic leukemia, ALL); assay: as above; assay type: cell-based, human; conditions: Homo sapiens, Jurkat; 72 h, MTT
Procedure, shortened: as §1

[3] = system: Kasumi-1 (acute myeloid leukemia M2 type, AML-M2); assay: as above; assay type: cell-based, human; conditions: Homo sapiens, Kasumi 1
Procedure, shortened: as §1

[4] = system: K562/adr (drug-resistant, chronic myeloid leukemia, CML); assay: as above; assay type: cell-based, human; conditions: Homo sapiens, K562/Adr; 72 h, MTT
Procedure, shortened: as §1

[5] = system: H9 (acute lymphoblastic leukemia, ALL); assay: as above; assay type: cell-based, human; conditions: Homo sapiens; 72 h, MTT
Procedure, shortened: as §1

[6] = system: RPMI8226 (multiple myeloma); assay: Multiple myeloma cell growth inhibition, MTT, 72 h (Example 6); assay type: cell-based, human; conditions: Homo sapiens, RPMI-8226; 72 h, MTT, RPMI8226
Procedure, shortened: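 Viability was read by MTT after 72 h of compound exposure at 37 °C, 5% CO2. Each well held 6000 RPMI8226 cells in 1640 medium containing 10% fetal bovine serum, with derivatives added at various concentrations.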

MG63 (osteosarcoma) = assay: Solid tumor cell growth inhibition, MTT, 72 h (Example 7); assay type: cell-based, human; conditions: Homo sapiens; 72 h, MTT, MG-63
Procedure, shortened: (§2)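 Cell viability was quantified by MTT 72 h after adding derivatives at different concentrations to 4000 cells/well. Untreated cells served as the 100% reference.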

[7] = system: Hep-2 (laryngeal carcinoma); assay: as above; assay type: cell-based, human; conditions: Homo sapiens; 72 h, MTT, Hep 2
Procedure, shortened: as §2

PC-3 (prostate cancer) = assay: as above; assay type: cell-based, human; conditions: for IC50 / IC90: Homo sapiens, 72 h, MTT, PC-3
Procedure, shortened: as §2

[8] = system: PANC-1 (pancreatic cancer); assay: as above; assay type: cell-based, human; conditions: for IC50 / IC90: Homo sapiens, 72 h, MTT, PANC-1
Procedure, shortened: as §2

[9] = system: CaES-17 (esophageal cancer cell); assay: as above; assay type: cell-based, human; conditions: Homo sapiens, CaEs17; 72 h, MTT, CAES-17
Procedure, shortened: as §2

[10] = system: RKO (human colon adenocarcinoma cell); assay: as above; assay type: cell-based; conditions: Homo sapiens; 72 h, MTT, RKO
Procedure, shortened: as §2

[11] = system: Becap37 (human breast cancer cell); assay: as above; assay type: cell-based; conditions: Homo sapiens; 72 h, MTT, Becap-37
Procedure, shortened: as §2

[12] = system: Huh7 (human liver cancer cell); assay: as above; assay type: cell-based; conditions: Homo sapiens; 72 h, MTT, Huh-7
Procedure, shortened: as §2

[13] = system: Hela (human cervical cancer cell); assay: as above; assay type: cell-based; conditions: Homo sapiens; 72 h, MTT, Hela
Procedure, shortened: as §2

[14] = system: SK-OV-3 (ovarian cancer cell); assay: as above; assay type: cell-based; conditions: Homo sapiens
Procedure, shortened: as §2

A549 (human lung cancer) = assay: as above; assay type: cell-based; conditions: Homo sapiens; 72 h, MTT, A549
Procedure, shortened: as §2

[15] = system: MGC 803 (human gastric cancer cell); assay: as above; assay type: cell-based; conditions: Homo sapiens
Procedure, shortened: as §2

[16] = system: U87 MG (malignant glioma cell); assay: as above; assay type: cell-based; conditions: Homo sapiens, U-87 MG
Procedure, shortened: as §2

[17] = system: CNE (nasopharyngeal carcinoma cell); assay: as above; assay type: cell-based; conditions: Homo sapiens
Procedure, shortened: as §2

IC50 [1]: 0.4 µg/mL (≈ 0.535 µM) | IC90 [1]: 1 µg/mL (≈ 1.34 µM) | IC50 [2]: 0.65 µg/mL (≈ 0.869 µM) | IC90 [2]: 5 µg/mL (≈ 6.68 µM) | IC50 [3]: 0.42 µg/mL (≈ 0.562 µM) | IC90 [3]: 1.83 µg/mL (≈ 2.45 µM) | IC50 [4]: 0.36 µg/mL (≈ 0.481 µM) | IC90 [4]: 2.18 µg/mL (≈ 2.91 µM) | IC50 [5]: 1.25 µg/mL (≈ 1.67 µM) | IC90 [5]: 2.3 µg/mL (≈ 3.08 µM) | IC50 [6]: 0.05 µg/mL (≈ 0.0668 µM) | IC90 [6]: 1.42 µg/mL (≈ 1.9 µM) | IC50 (MG63 (osteosarcoma)): 1.1 µg/mL (≈ 1.47 µM) | IC90 (MG63 (osteosarcoma)): 1.98 µg/mL (≈ 2.65 µM) | IC50 [7]: 4.6 µg/mL (≈ 6.15 µM) | IC90 [7]: 8.29 µg/mL (≈ 11.1 µM) | IC50 (PC-3 (prostate cancer)): 3 µg/mL (≈ 4.01 µM) | IC90 (PC-3 (prostate cancer)): 4.7 µg/mL (≈ 6.28 µM) | IC50 [8]: 2.44 µg/mL (≈ 3.26 µM) | IC90 [8]: 8.04 µg/mL (≈ 10.7 µM) | IC50 [9]: 1.61 µg/mL (≈ 2.15 µM) | IC90 [9]: 7.67 µg/mL (≈ 10.3 µM) | IC50 [10]: 0.58 µg/mL (≈ 0.775 µM) | IC90 [10]: 1.01 µg/mL (≈ 1.35 µM) | IC50 [11]: 1.1 µg/mL (≈ 1.47 µM) | IC90 [11]: 2 µg/mL (≈ 2.67 µM) | IC50 [12]: 1.19 µg/mL (≈ 1.59 µM) | IC90 [12]: 1.68 µg/mL (≈ 2.25 µM) | IC50 [13]: 1.09 µg/mL (≈ 1.46 µM) | IC90 [13]: 2.56 µg/mL (≈ 3.42 µM) | IC50 [14]: 2 µg/mL (≈ 2.67 µM) | IC90 [14]: 14.4 µg/mL (≈ 19.3 µM) | IC50 (A549 (human lung cancer)): 3.3 µg/mL (≈ 4.41 µM) | IC90 (A549 (human lung cancer)): 12.8 µg/mL (≈ 17.1 µM) | IC50 [15]: 0.88 µg/mL (≈ 1.18 µM) | IC90 [15]: 6 µg/mL (≈ 8.02 µM) | IC50 [16]: 0.33 µg/mL (≈ 0.441 µM) | IC90 [16]: 1.01 µg/mL (≈ 1.35 µM) | IC50 [17]: 1.57 µg/mL (≈ 2.1 µM) | IC90 [17]: 2.83 µg/mL (≈ 3.78 µM)
SMILES: COc1ccc2cc1Oc1ccc(cc1)C[C@H]1c3cc(c(OC)cc3CCN1C)Oc1c(OC)c(OC)c(CNCc3cccs3)c3c1[C@H](C2)N(C)CC3 [BS-TE-359]

IC50 [1]: 0.9 µg/mL (≈ 1.17 µM) | IC90 [1]: 2.1 µg/mL (≈ 2.73 µM) | IC50 [2]: 1.13 µg/mL (≈ 1.47 µM) | IC90 [2]: 4.75 µg/mL (≈ 6.17 µM) | IC50 [3]: 0.88 µg/mL (≈ 1.14 µM) | IC90 [3]: 3.57 µg/mL (≈ 4.64 µM) | IC50 [4]: 0.36 µg/mL (≈ 0.468 µM) | IC90 [4]: 1.58 µg/mL (≈ 2.05 µM) | IC50 [5]: 0.7 µg/mL (≈ 0.909 µM) | IC90 [5]: 1.11 µg/mL (≈ 1.44 µM) | IC50 [6]: 0.06 µg/mL (≈ 0.0779 µM) | IC90 [6]: 1.49 µg/mL (≈ 1.94 µM) | IC50 (MG63 (osteosarcoma)): 1.3 µg/mL (≈ 1.69 µM) | IC90 (MG63 (osteosarcoma)): 1.9 µg/mL (≈ 2.47 µM) | IC50 [7]: 1.96 µg/mL (≈ 2.55 µM) | IC90 [7]: 4.25 µg/mL (≈ 5.52 µM) | IC50 (PC-3 (prostate cancer)): 1.59 µg/mL (≈ 2.06 µM) | IC90 (PC-3 (prostate cancer)): 2.14 µg/mL (≈ 2.78 µM) | IC50 [8]: 1.4 µg/mL (≈ 1.82 µM) | IC90 [8]: 4.18 µg/mL (≈ 5.43 µM) | IC50 [9]: 1.61 µg/mL (≈ 2.09 µM) | IC90 [9]: 7.4 µg/mL (≈ 9.61 µM) | IC50 [10]: 1.15 µg/mL (≈ 1.49 µM) | IC90 [10]: 2.49 µg/mL (≈ 3.23 µM) | IC50 [11]: 1.3 µg/mL (≈ 1.69 µM) | IC90 [11]: 3.2 µg/mL (≈ 4.16 µM) | IC50 [12]: 1.55 µg/mL (≈ 2.01 µM) | IC90 [12]: 3.72 µg/mL (≈ 4.83 µM) | IC50 [13]: 0.94 µg/mL (≈ 1.22 µM) | IC90 [13]: 2.02 µg/mL (≈ 2.62 µM) | IC50 [14]: 2 µg/mL (≈ 2.6 µM) | IC90 [14]: 8.1 µg/mL (≈ 10.5 µM) | IC50 (A549 (human lung cancer)): 2.2 µg/mL (≈ 2.86 µM) | IC90 (A549 (human lung cancer)): 5.8 µg/mL (≈ 7.53 µM) | IC50 [15]: 0.73 µg/mL (≈ 0.948 µM) | IC90 [15]: 1 µg/mL (≈ 1.3 µM) | IC50 [16]: 0.5 µg/mL (≈ 0.649 µM) | IC90 [16]: 1.81 µg/mL (≈ 2.35 µM) | IC50 [17]: 2.3 µg/mL (≈ 2.99 µM) | IC90 [17]: 3.5 µg/mL (≈ 4.55 µM)
SMILES: COc1ccc2cc1Oc1ccc(cc1)C[C@H]1c3cc(c(OC)cc3CCN1C)Oc1c(OC)c(OC)c(CN(C)[C@@H](C)c3ccccc3)c3c1[C@H](C2)N(C)CC3 [BS-TE-317]
anti-PC-3 activity increase over tetrandrine (PC-3 (prostate cancer); compared with tetrandrine): ~4 fold | anti-PANC-1 activity increase over tetrandrine ([8]; compared with tetrandrine): 2 fold

IC50 [1]: 1.7 µg/mL (≈ 2.35 µM) | IC90 [1]: 5.5 µg/mL (≈ 7.59 µM) | IC50 [2]: 1.57 µg/mL (≈ 2.17 µM) | IC90 [2]: 9.9 µg/mL (≈ 13.7 µM) | IC50 [3]: 1.33 µg/mL (≈ 1.83 µM) | IC90 [3]: 6.67 µg/mL (≈ 9.2 µM) | IC50 [4]: 1.44 µg/mL (≈ 1.99 µM) | IC90 [4]: 5.38 µg/mL (≈ 7.42 µM) | IC50 [5]: 1.38 µg/mL (≈ 1.9 µM) | IC90 [5]: 3.41 µg/mL (≈ 4.7 µM) | IC50 [6]: 0.52 µg/mL (≈ 0.717 µM) | IC90 [6]: 2.81 µg/mL (≈ 3.88 µM) | IC50 (MG63 (osteosarcoma)): 2.49 µg/mL (≈ 3.43 µM) | IC90 (MG63 (osteosarcoma)): 6.36 µg/mL (≈ 8.77 µM) | IC50 [7]: 2.4 µg/mL (≈ 3.31 µM) | IC90 [7]: 6.87 µg/mL (≈ 9.48 µM) | IC50 (PC-3 (prostate cancer)): 3.32 µg/mL (≈ 4.58 µM) | IC90 (PC-3 (prostate cancer)): 6.95 µg/mL (≈ 9.59 µM) | IC50 [8]: 2.73 µg/mL (≈ 3.77 µM) | IC90 [8]: 16 µg/mL (≈ 22.1 µM) | IC50 [9]: 3.94 µg/mL (≈ 5.44 µM) | IC90 [9]: 16.4 µg/mL (≈ 22.7 µM) | IC50 [10]: 0.89 µg/mL (≈ 1.23 µM) | IC90 [10]: 1.99 µg/mL (≈ 2.75 µM) | IC50 [11]: 3.5 µg/mL (≈ 4.83 µM) | IC90 [11]: 10.8 µg/mL (≈ 14.9 µM) | IC50 [12]: 2.31 µg/mL (≈ 3.19 µM) | IC90 [12]: 3.43 µg/mL (≈ 4.73 µM) | IC50 [13]: 1.07 µg/mL (≈ 1.48 µM) | IC90 [13]: 2.89 µg/mL (≈ 3.99 µM) | IC50 [14]: 7.1 µg/mL (≈ 9.79 µM) | IC90 [14]: > 16 µg/mL | IC50 (A549 (human lung cancer)): 8.4 µg/mL (≈ 11.6 µM) | IC90 (A549 (human lung cancer)): > 16 µg/mL | IC50 [15]: 2.87 µg/mL (≈ 3.96 µM) | IC90 [15]: 8 µg/mL (≈ 11 µM) | IC50 [16]: 2.86 µg/mL (≈ 3.95 µM) | IC90 [16]: 6.66 µg/mL (≈ 9.19 µM) | IC50 [17]: 1.6 µg/mL (≈ 2.21 µM) | IC90 [17]: 3.49 µg/mL (≈ 4.81 µM)
SMILES: COCC(C)OCc1c2c3c(c(OC)c1OC)Oc1cc4c(cc1OC)CCN(C)[C@H]4Cc1ccc(cc1)Oc1cc(ccc1OC)C[C@@H]3N(C)CC2 (some centres unmarked) [BS-TE-406]
